{"source": "patent US8404893B2", "about": "“Pentafluorosulfanylbenzoylguanidines, processes for their preparation, their use as medicaments or diagnostic aids, and medicaments comprising them” (Sanofi-Aventis Deutschland GmbH, priority 2002, dated 2013)", "note": "Counter-ions that a name gives are not always drawn."}
{"target": "T1, human NHE-1 (Homo sapiens, UniProt P19634)", "T1 construct": "expressed in transfected cells; host or cells: LAP-1 cells (parental line without endogenous NHE activity), stably transfected, G418 selection", "T1 sequence (P19634 whole entry)": "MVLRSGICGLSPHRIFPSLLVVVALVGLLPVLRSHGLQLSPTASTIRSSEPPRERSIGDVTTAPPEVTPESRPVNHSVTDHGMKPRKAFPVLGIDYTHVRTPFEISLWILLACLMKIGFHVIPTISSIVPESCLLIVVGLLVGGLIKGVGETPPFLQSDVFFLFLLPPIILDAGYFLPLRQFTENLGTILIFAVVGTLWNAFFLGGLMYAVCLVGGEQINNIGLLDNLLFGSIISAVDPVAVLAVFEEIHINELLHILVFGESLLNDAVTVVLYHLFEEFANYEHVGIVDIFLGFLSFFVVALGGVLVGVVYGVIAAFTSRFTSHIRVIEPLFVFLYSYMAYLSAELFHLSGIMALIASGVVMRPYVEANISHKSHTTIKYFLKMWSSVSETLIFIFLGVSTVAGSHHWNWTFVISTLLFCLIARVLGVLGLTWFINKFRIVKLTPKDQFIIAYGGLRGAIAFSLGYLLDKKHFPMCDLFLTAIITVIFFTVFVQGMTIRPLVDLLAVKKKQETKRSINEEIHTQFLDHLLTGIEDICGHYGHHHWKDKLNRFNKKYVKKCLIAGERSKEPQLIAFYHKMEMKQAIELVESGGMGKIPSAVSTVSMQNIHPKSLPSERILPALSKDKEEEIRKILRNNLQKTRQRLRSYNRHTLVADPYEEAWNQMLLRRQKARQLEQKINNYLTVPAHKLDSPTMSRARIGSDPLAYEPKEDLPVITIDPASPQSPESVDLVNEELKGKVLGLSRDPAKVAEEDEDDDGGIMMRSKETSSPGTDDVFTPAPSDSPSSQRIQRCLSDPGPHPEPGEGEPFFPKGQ", "experiment": "FLIPR assay for NHE-1 inhibition by measurement of the recovery in pHi in transfected cell lines", "assay_type": "cell-based", "details": "transfected LAP-1 cell line expressing human NHE-1, BCECF fluorescence, read-out: NHE1 inhibition IC50", "procedure": "The NHE-1 inhibition IC50 [nM] was determined as follows:\nFLIPR assay for determining NHE-1 inhibitors by measurement of the recovery in pHi in transfected cell lines which express human NHE-1\nThe assay is carried out in an FLIPR (fluorometric imaging plate reader) with black-walled 96-well microtiter plates with clear bases. […] [The growth medium for the transfected cells (Iscove+10% fetal calf serum) additionally contains G418 as selection antibiotic in order to ensure the presence of the transfected sequences.]\nThe actual assay starts with the removal of the growth medium and addition of 100 μl of loading buffer per well (5 μM BCECF-AM [2′,7′-bis(carboxyethyl)-5-(and -6-)carboxyfluorescein, acetoxymethyl ester] in 20 mM NH4Cl, 115 mM choline chloride, 1 mM MgCl2, 1 mM CaCl2, 5 mM KCl, 20 mM HEPES, 5 mM glucose; pH 7.4 [adjusted with KOH]). The cells are then incubated at 37° C. for 20 minutes. This incubation leads to loading of the cells with the fluorescent dye whose fluorescence intensity depends on pHi, and with NH4Cl which makes the cells slightly alkaline.\n[The nonfluorescent dye precursor BCECF-AM is, as ester, membrane-permeable. The actual dye BCECF is not membrane-permeable but is liberated inside cells by esterases.]\nAfter this incubation for 20 minutes, the loading buffer which contains NH4Cl and free BCECF-AM is removed by washing three times in a cell washer (Tecan Columbus) with in each case 400 μl of washing buffer (133.8 mM choline chloride, 4.7 mM KCl, 1.25 mM MgCl2, 1.25 mM CaCl2, 0.97 mM K2HPO4, 0.23 mM KH2PO4, 5 mM HEPES, 5 mM glucose; pH 7.4 [adjusted with KOH]). The residual volume remaining in the wells is 90 μl (50-125 μl possible). This washing step removes the free BCECF-AM and results, as a consequence of the removal of the external NH4^+ ions, in intracellular acidification (˜pHi 6.3-6.4).\nSince the equilibrium of intracellular NH4^+ with NH3 and H^+ is disturbed by the removal of the extracellular NH4^+ and by the subsequent instantaneous passage of the NH3 through the cell membrane, the washing process results in H^+ remaining inside the cells, which is the cause of the intracellular acidification. This may eventually lead to cell death if it persists long enough.\nIt is important at this point that the washing buffer is sodium-free (<1 mM) because extracellular sodium ions would lead to an instantaneous recovery of the pHi through the activity of the cloned NHE isoforms.\nIt is likewise important for all the buffers used (loading buffer, washing buffer, recovery buffer) not to contain any HCO3^− ions, because the presence of bicarbonate would lead to activation of interfering bicarbonate-dependent pHi regulatory systems present in the parental LAP-1 cell line.\nThe microtiter plates with the acidified cells are then (up to 20 minutes after the acidification) transferred to the FLIPR. In the FLIPR, the intracellular fluorescent dye is excited by light with a wavelength of 488 nm generated by an argon laser, and the measured parameters (laser power, illumination time and aperture of the CCD camera incorporated in the FLIPR) are chosen so that the average fluorescence signal per well is between 30 000 and 35 000 relative fluorescence units.\nThe actual measurement in the FLIPR starts with a photograph being taken by the CCD camera every two seconds under software control. After ten seconds, the recovery of the intracellular pH is initiated by adding 90 μl of recovery buffer (133.8 mM NaCl, 4.7 mM KCl, 1.25 mM MgCl2, 1.25 mM CaCl2, 0.97 mM K2HPO4, 0.23 mM KH2PO4, 10 mM HEPES, 5 mM glucose; pH 7.4 [adjusted with NaOH]) by means of the 96-well pipettor incorporated in the FLIPR.\nPositive control wells (100% NHE activity) are those to which pure recovery buffer is added, while negative controls (0% NHE activity) receive washing buffer. Recovery buffer with twice the concentration of test substance is added to all the other wells. Measurement in the FLIPR terminates after 60 measurements (two minutes). […]", "units": {"IC50": "µM"}}
{"smiles": "Cc1cc(S(F)(F)(F)(F)F)ccc1C(=O)N=C(N)N", "note": "[Example 3, 4-Pentafluorosulfanyl-2-methylbenzoylguanidine]", "IC50": 0.0145}
{"smiles": "NC(N)=NC(=O)c1ccc(S(F)(F)(F)(F)F)cc1", "note": "[Example 2, 4-Pentafluorosulfanylbenzoylguanidine, Hydrochloride]", "IC50": 0.131}
{"smiles": "N=C(N)NC(=O)c1ccc(S(F)(F)(F)(F)F)cc1Cl", "note": "[Example 4, N-[2-Chloro-4-pentafluorosulfanylbenzoyl]guanidine]", "IC50": 0.22}
{"smiles": "N=C(N)NC(=O)c1ccc(S(F)(F)(F)(F)F)cc1Oc1ccc(F)cc1", "note": "[Example 5, N-[2-(4-Fluorophenoxy)-4-pentafluorosulfanylbenzoyl]guanidine]", "IC50": 12}
{"smiles": "NC(N)=NC(=O)c1cccc(S(F)(F)(F)(F)F)c1", "note": "[Example 1, 3-Pentafluorosulfanylbenzoylguanidine, Hydrochloride]", "IC50": 0.237}
{"smiles": "Cc1ccc(S(F)(F)(F)(F)F)cc1C(=O)N=C(N)N", "note": "[Example 6, N-(2-Methyl-5-pentafluorosulfanylbenzoyl)guanidine]", "IC50": 0.0203}
